{
  "source": "ChEMBL document CHEMBL3885881",
  "about": "“DrugMatrix”",
  "organism": "Rattus norvegicus",
  "assay_type": "toxicity, organism-based, Sprague-Dawley",
  "conditions": "in vivo, sc, 24 h, route mini-PUMP - SUBCUTANEOUS, time 1 day, vehicle 100 % SALINE; for ABSOLUTE EOSINOPHIL / ABSOLUTE LYMPHOCYTE / ABSOLUTE MONOCYTE / ABSOLUTE SEGMENTED NEUTROPHIL / BASOPHIL / EOSINOPHIL / ERYTHROCYTE COUNT / HEMATOCRIT / HEMOGLOBIN / LEUKOCYTE COUNT / LYMPHOCYTE / MEAN CORPUSCULAR HEMOGLOBIN / MEAN CORPUSCULAR HEMOGLOBIN CONCENTRATION / MEAN CORPUSCULAR VOLUME / MONOCYTE / NEUTROPHIL / NUCLEATED RED BLOOD CELLS / PLATELET COUNT: tissue Blood; for ALANINE AMINOTRANSFERASE / ALBUMIN / ALKALINE PHOSPHATASE / ASPARTATE AMINOTRANSFERASE / BLOOD UREA NITROGEN / CARBON DIOXIDE / CHLORIDE / CHOLESTEROL / CREATININE / GLUCOSE / LACTATE DEHYDROGENASE / LIPASE / PHOSPHORUS / POTASSIUM / SODIUM / TOTAL BILIRUBIN / TOTAL PROTEIN / URIC ACID: tissue Plasma",
  "key": {"[1]": {"conditions": "0 mg/kg, vehicle control, dose level Control"}},
  "description": "DrugMatrix - Regimen: Single",
  "data": [
    {"smiles": "NC[C@H](O)c1ccc(O)c(O)c1", "note": "[NOREPINEPHRINE]", "values": [
      {"measurement": "ABSOLUTE EOSINOPHIL", "setting": "[1]", "result": 26.17, "unit": "CELLS/uL"},
      {"measurement": "ABSOLUTE LYMPHOCYTE", "setting": "[1]", "result": 10985.83, "unit": "CELLS/uL"},
      {"measurement": "ABSOLUTE MONOCYTE", "setting": "[1]", "result": 234.5, "unit": "CELLS/uL"},
      {"measurement": "ABSOLUTE SEGMENTED NEUTROPHIL", "setting": "[1]", "result": 1753.5, "unit": "CELLS/uL"},
      {"measurement": "BASOPHIL", "setting": "[1]", "result": 0, "unit": "%"},
      {"measurement": "EOSINOPHIL", "setting": "[1]", "result": 0.17, "unit": "%"},
      {"measurement": "ERYTHROCYTE COUNT", "setting": "[1]", "result": 5.64, "unit": "x10E6/uL"},
      {"measurement": "HEMATOCRIT", "setting": "[1]", "result": 34.52, "unit": "%"},
      {"measurement": "HEMOGLOBIN", "setting": "[1]", "result": 12.68, "unit": "G/DL"},
      {"measurement": "LEUKOCYTE COUNT", "setting": "[1]", "result": 13, "unit": "x10E3/uL"},
      {"measurement": "LYMPHOCYTE", "setting": "[1]", "result": 84.5, "unit": "%"},
      {"measurement": "MEAN CORPUSCULAR HEMOGLOBIN", "setting": "[1]", "result": 22.5, "unit": "pg"},
      {"measurement": "MEAN CORPUSCULAR HEMOGLOBIN CONCENTRATION", "setting": "[1]", "result": 36.78, "unit": "G/DL"},
      {"measurement": "MEAN CORPUSCULAR VOLUME", "setting": "[1]", "result": 61.18, "unit": "fL"},
      {"measurement": "MONOCYTE", "setting": "[1]", "result": 1.83, "unit": "%"},
      {"measurement": "NEUTROPHIL", "setting": "[1]", "result": 13.5, "unit": "%"},
      {"measurement": "NUCLEATED RED BLOOD CELLS", "setting": "[1]", "result": "0.17 /100WBC"},
      {"measurement": "PLATELET COUNT", "setting": "[1]", "result": 679.17, "unit": "x10E3/uL"},
      {"measurement": "ALANINE AMINOTRANSFERASE", "setting": "[1]", "result": 42.67, "unit": "u/L"},
      {"measurement": "ALBUMIN", "setting": "[1]", "result": 3.77, "unit": "G/DL"},
      {"measurement": "ALKALINE PHOSPHATASE", "setting": "[1]", "result": 291.17, "unit": "u/L"},
      {"measurement": "ASPARTATE AMINOTRANSFERASE", "setting": "[1]", "result": 74.5, "unit": "u/L"},
      {"measurement": "BLOOD UREA NITROGEN", "setting": "[1]", "result": 15.33, "unit": "mg/dL"},
      {"measurement": "CARBON DIOXIDE", "setting": "[1]", "result": 30, "unit": "mmol/L"},
      {"measurement": "CHLORIDE", "setting": "[1]", "result": 100.83, "unit": "MEQ/L"},
      {"measurement": "CHOLESTEROL", "setting": "[1]", "result": 65.33, "unit": "mg/dL"},
      {"measurement": "CREATININE", "setting": "[1]", "result": 0.15, "unit": "mg/dL"},
      {"measurement": "GLUCOSE", "setting": "[1]", "result": 179.83, "unit": "mg/dL"},
      {"measurement": "LACTATE DEHYDROGENASE", "setting": "[1]", "result": 162.67, "unit": "u/L"},
      {"measurement": "LIPASE", "setting": "[1]", "result": 8.5, "unit": "u/L"},
      {"measurement": "PHOSPHORUS", "setting": "[1]", "result": 12.2, "unit": "mg/dL"},
      {"measurement": "POTASSIUM", "setting": "[1]", "result": 5.73, "unit": "MEQ/L"},
      {"measurement": "SODIUM", "setting": "[1]", "result": 144.7, "unit": "MEQ/L"},
      {"measurement": "TOTAL BILIRUBIN", "setting": "[1]", "result": 0.15, "unit": "mg/dL"},
      {"measurement": "TOTAL PROTEIN", "setting": "[1]", "result": 5.87, "unit": "G/DL"},
      {"measurement": "URIC ACID", "setting": "[1]", "result": 1.93, "unit": "mg/dL"},
      {"measurement": "ABSOLUTE EOSINOPHIL", "setting": "1.75 mg/kg, dose level High", "result": 128.33, "unit": "CELLS/uL"},
      {"measurement": "ABSOLUTE LYMPHOCYTE", "setting": "1.75 mg/kg, dose level High", "result": 11603.67, "unit": "CELLS/uL"},
      {"measurement": "ABSOLUTE MONOCYTE", "setting": "1.75 mg/kg, dose level High", "result": 444.67, "unit": "CELLS/uL"},
      {"measurement": "ABSOLUTE SEGMENTED NEUTROPHIL", "setting": "1.75 mg/kg, dose level High", "result": 3490, "unit": "CELLS/uL"},
      {"measurement": "BASOPHIL", "setting": "1.75 mg/kg, dose level High", "result": 0, "unit": "%"},
      {"measurement": "EOSINOPHIL", "setting": "1.75 mg/kg, dose level High", "result": 1, "unit": "%"},
      {"measurement": "ERYTHROCYTE COUNT", "setting": "1.75 mg/kg, dose level High", "result": 6.6, "unit": "x10E6/uL"},
      {"measurement": "HEMATOCRIT", "setting": "1.75 mg/kg, dose level High", "result": 39.53, "unit": "%"},
      {"measurement": "HEMOGLOBIN", "setting": "1.75 mg/kg, dose level High", "result": 14.47, "unit": "G/DL"},
      {"measurement": "LEUKOCYTE COUNT", "setting": "1.75 mg/kg, dose level High", "result": 15.67, "unit": "x10E3/uL"},
      {"measurement": "LYMPHOCYTE", "setting": "1.75 mg/kg, dose level High", "result": 74, "unit": "%"},
      {"measurement": "MEAN CORPUSCULAR HEMOGLOBIN", "setting": "1.75 mg/kg, dose level High", "result": 21.97, "unit": "pg"},
      {"measurement": "MEAN CORPUSCULAR HEMOGLOBIN CONCENTRATION", "setting": "1.75 mg/kg, dose level High", "result": 36.6, "unit": "G/DL"},
      {"measurement": "MEAN CORPUSCULAR VOLUME", "setting": "1.75 mg/kg, dose level High", "result": 60.07, "unit": "fL"},
      {"measurement": "MONOCYTE", "setting": "1.75 mg/kg, dose level High", "result": 3, "unit": "%"},
      {"measurement": "NEUTROPHIL", "setting": "1.75 mg/kg, dose level High", "result": 22, "unit": "%"},
      {"measurement": "NUCLEATED RED BLOOD CELLS", "setting": "1.75 mg/kg, dose level High", "result": "0 /100WBC"},
      {"measurement": "PLATELET COUNT", "setting": "1.75 mg/kg, dose level High", "result": 1126, "unit": "x10E3/uL"},
      {"measurement": "ALANINE AMINOTRANSFERASE", "setting": "1.75 mg/kg, dose level High", "result": 33, "unit": "u/L"},
      {"measurement": "ALBUMIN", "setting": "1.75 mg/kg, dose level High", "result": 4.03, "unit": "G/DL"},
      {"measurement": "ALKALINE PHOSPHATASE", "setting": "1.75 mg/kg, dose level High", "result": 413.33, "unit": "u/L"},
      {"measurement": "ASPARTATE AMINOTRANSFERASE", "setting": "1.75 mg/kg, dose level High", "result": 77.33, "unit": "u/L"},
      {"measurement": "BLOOD UREA NITROGEN", "setting": "1.75 mg/kg, dose level High", "result": 10.33, "unit": "mg/dL"},
      {"measurement": "CARBON DIOXIDE", "setting": "1.75 mg/kg, dose level High", "result": 27.67, "unit": "mmol/L"},
      {"measurement": "CHLORIDE", "setting": "1.75 mg/kg, dose level High", "result": 101, "unit": "MEQ/L"},
      {"measurement": "CHOLESTEROL", "setting": "1.75 mg/kg, dose level High", "result": 102, "unit": "mg/dL"},
      {"measurement": "CREATININE", "setting": "1.75 mg/kg, dose level High", "result": 0.12, "unit": "mg/dL"},
      {"measurement": "GLUCOSE", "setting": "1.75 mg/kg, dose level High", "result": 268, "unit": "mg/dL"},
      {"measurement": "LACTATE DEHYDROGENASE", "setting": "1.75 mg/kg, dose level High", "result": 247.67, "unit": "u/L"},
      {"measurement": "LIPASE", "setting": "1.75 mg/kg, dose level High", "result": 9, "unit": "u/L"},
      {"measurement": "PHOSPHORUS", "setting": "1.75 mg/kg, dose level High", "result": 14.8, "unit": "mg/dL"},
      {"measurement": "POTASSIUM", "setting": "1.75 mg/kg, dose level High", "result": 6.26, "unit": "MEQ/L"},
      {"measurement": "SODIUM", "setting": "1.75 mg/kg, dose level High", "result": 146.7, "unit": "MEQ/L"},
      {"measurement": "TOTAL BILIRUBIN", "setting": "1.75 mg/kg, dose level High", "result": 0.13, "unit": "mg/dL"},
      {"measurement": "TOTAL PROTEIN", "setting": "1.75 mg/kg, dose level High", "result": 6.4, "unit": "G/DL"},
      {"measurement": "URIC ACID", "setting": "1.75 mg/kg, dose level High", "result": 3.1, "unit": "mg/dL"}
    ]}
  ]
}
